Laboratory results: patent US9399638B2, “Substituted pyridine compounds as CRAC modulators” (LUPIN LIMITED, priority 2012, dated 2016)

System: IL-2 secretion by Jurkat T cells
Assay: Inhibition of IL-2 secretion
Type: cell-based
Details: Homo sapiens; Jurkat T cells stimulated with PHA, 20 to 24 hours, IL-2 by ELISA
Protocol: The CRAC channel modulatory activity of the compounds were thus evaluated by measuring the secretion of IL-2 by antigen stimulated T-cells in vitro. Alternatively, such activity can also be evaluated by assay methods known to one skilled in the art.
Inhibition of IL-2 secretion: Jurkat T cells were seeded at a density of 0.5 to 1 million cells per well in RPMI medium. Test compounds from this invention were added to the cells at different concentrations. This was followed by the addition of PHA, a T cell mitogen after 10 minutes. The cells were then incubated for 20 to 24 hours in a CO2 incubator at 37° C. After incubation with the compounds, cells were centrifuged, the supernatant was collected and processed for ELISA to quantitate the amount of IL-2 secreted. A commercial ELISA kit (R&D Systems, Inc. Minneapolis, Minn., USA) was used to estimate the IL-2 concentrations. Amount of IL-2 secreted by cells stimulated with PHA was considered as a 100% maximal signal and the decrease in amount of IL-2 secreted by cells treated with the test compounds was expressed as percent inhibition of the maximal signal. The dose response data was analyzed using 4-parametric sigmoidal dose response (variable slope) curve—fit.

IC50 [nM] | SMILES
100 to 1000 | Cc1ncc(-c2nn(C)c(=O)o2)cc1-c1ccc(NC(=O)c2c(F)cccc2F)cc1 [Example 1, 2,6-Difluoro-N-(4-(2-methyl-5-(4-methyl-5-oxo-4,5-dihydro-1,3,4-oxadiazol-2-yl)pyridin-3-yl)phenyl)benzamide]
100 to 1000 | CCc1ncc(-c2nn(C)c(=O)o2)cc1-c1ccc(C(=O)Nc2c(F)cccc2F)cc1 [Example 3, N-(2,6-Difluorophenyl)-4-(2-ethyl-5-(4-methyl-5-oxo-4,5-dihydro-1,3,4-oxadiazol-2-yl)pyridin-3-yl)benzamide]
< 100 | Cn1nc(-c2cnc(C3CC3)c(-c3ccc(NC(=O)c4c(F)cccc4F)cc3)c2)oc1=O [Example 4, N-(4-(2-Cyclopropyl-5-(4-methyl-5-oxo-4,5-dihydro-1,3,4-oxadiazol-2-yl)pyridin-3-yl)phenyl)-2,6-difluorobenzamide]
100 to 1000 | Cn1nc(-c2cnc(C3CC3)c(-c3ccc(C(=O)Nc4c(F)cccc4F)cc3)c2)oc1=O [Example 5, 4-(2-cyclopropyl-5-(4-methyl-5-oxo-4,5-dihydro-1,3,4-oxadiazol-2-yl)pyridin-3-yl)-N-(2,6-difluorophenyl)benzamide]
< 100 | Cn1nc(-c2cnc(C(F)(F)F)c(-c3ccc(NC(=O)c4c(F)cccc4F)cc3)c2)oc1=O [Example 7, 2,6-difluoro-N-(4-(5-(4-methyl-5-oxo-4,5-dihydro-1,3,4-oxadiazol-2-yl)-2-(trifluoromethyl)pyridin-3-yl)phenyl)benzamide]
100 to 1000 | Cc1cc(NC(=O)c2c(F)cccc2F)ccc1-c1cc(-c2nn(C)c(=O)o2)cnc1C(F)(F)F [Example 8, 2,6-difluoro-N-(3-methyl-4-(5-(4-methyl-5-oxo-4,5-dihydro-1,3,4-oxadiazol-2-yl)-2-(trifluoromethyl)pyridin-3-yl)phenyl)benzamide]
< 100 | CNc1ncc(-c2nn(C)c(=O)o2)cc1-c1ccc(NC(=O)c2c(F)cccc2F)cc1 [Example 10, 2,6-Difluoro-N-(4-(5-(4-methyl-5-oxo-4,5-dihydro-1,3,4-oxadiazol-2-yl)-2-(methylamino)pyridin-3-yl)phenyl)benzamide]
< 100 | CNc1ncc(-c2nn(C)c(=O)o2)cc1-c1ccc(NC(=O)c2c(F)cccc2Cl)cc1 [Example 11, 2-Chloro-6-fluoro-N-(4-(5-(4-methyl-5-oxo-4,5-dihydro-1,3,4-oxadiazol-2-yl)-2-(methylamino)pyridin-3-yl)phenyl)benzamide]
< 100 | CNc1ncc(-c2nn(C)c(=O)o2)cc1-c1ccc(NC(=O)c2c(C)cccc2F)cc1 [Example 12, 2-Fluoro-6-methyl-N-(4-(5-(4-methyl-5-oxo-4,5-dihydro-1,3,4-oxadiazol-2-yl)-2-(methylamino)pyridin-3-yl)phenyl)benzamide]
100 to 1000 | CNc1ncc(-c2nn(C)c(=O)o2)cc1-c1ccc(NC(=O)c2c(F)cccc2F)cc1C [Example 13, 2,6-Difluoro-N-(3-methyl-4-(5-(4-methyl-5-oxo-4,5-dihydro-1,3,4-oxadiazol-2-yl)-2-(methylamino)pyridin-3-yl)phenyl)benzamide]
> 1000 | Cn1nc(-c2cncc(-c3ccc(NC(=O)c4c(F)cccc4F)cc3)c2)oc1=O [Example 14, 2,6-Difluoro-N-(4-(5-(4-methyl-5-oxo-4,5-dihydro-1,3,4-oxadiazol-2-yl)pyridin-3-yl)phenyl)benzamide]
< 100 | Cc1cc(NC(=O)c2c(F)cccc2F)ccc1-c1cncc(-c2nn(C)c(=O)o2)c1 [Example 15, 2,6-Difluoro-N-(3-methyl-4-(5-(4-methyl-5-oxo-4,5-dihydro-1,3,4-oxadiazol-2-yl)pyridin-3-yl)phenyl)benzamide]
100 to 1000 | CCc1c(-c2ccc(NC(=O)c3c(F)cccc3F)cc2)cncc1-c1nn(C)c(=O)o1 [Example 16, N-(4-(4-Ethyl-5-(4-methyl-5-oxo-4,5-dihydro-1,3,4-oxadiazol-2-yl)pyridin-3-yl)phenyl)-2,6-difluorobenzamide]
> 1000 | CCc1c(-c2ccc(C(=O)Nc3c(F)cccc3F)cc2)cncc1-c1nn(C)c(=O)o1 [Example 17, N-(2,6-Difluorophenyl)-4-(4-ethyl-5-(4-methyl-5-oxo-4,5-dihydro-1,3,4-oxadiazol-2-yl)pyridin-3-yl)benzamide]
> 1000 | CCc1c(-c2nn(C)c(=O)o2)ccnc1-c1ccc(NC(=O)c2c(F)cccc2F)cc1 [Example 18, N-(4-(3-Ethyl-4-(4-methyl-5-oxo-4,5-dihydro-1,3,4-oxadiazol-2-yl)pyridin-2-yl)phenyl)-2,6-difluorobenzamide]
> 1000 | CCc1c(-c2nn(C)c(=O)o2)ccnc1-c1ccc(C(=O)Nc2c(F)cccc2F)cc1 [Example 19, N-(2,6-Difluorophenyl)-4-(3-ethyl-4-(4-methyl-5-oxo-4,5-dihydro-1,3,4-oxadiazol-2-yl)pyridin-2-yl)benzamide]
> 1000 | Cc1c(-c2nn(C)c(=O)o2)ccnc1-c1ccc(NC(=O)c2c(F)cccc2F)cc1 [Example 20, 2,6-Difluoro-N-(4-(3-methyl-4-(4-methyl-5-oxo-4,5-dihydro-1,3,4-oxadiazol-2-yl)pyridin-2-yl)phenyl)benzamide]
> 1000 | CCc1cnc(-c2ccc(NC(=O)c3c(F)cccc3F)cc2)cc1-c1nn(C)c(=O)o1 [Example 21, N-(4-(5-Ethyl-4-(4-methyl-5-oxo-4,5-dihydro-1,3,4-oxadiazol-2-yl)pyridin-2-yl)phenyl)-2,6-difluorobenzamide]
> 1000 | CCc1cnc(-c2ccc(C(=O)Nc3c(F)cccc3F)cc2)cc1-c1nn(C)c(=O)o1 [Example 22, N-(2,6-Difluorophenyl)-4-(5-ethyl-4-(4-methyl-5-oxo-4,5-dihydro-1,3,4-oxadiazol-2-yl)pyridin-2-yl)benzamide]
> 1000 | Cc1cc(-c2nn(C)c(=O)o2)cc(-c2ccc(NC(=O)c3c(F)cccc3F)cc2)n1 [Example 23, 2,6-Difluoro-N-(4-(6-methyl-4-(4-methyl-5-oxo-4,5-dihydro-1,3,4-oxadiazol-2-yl)pyridin-2-yl)phenyl)benzamide]
> 1000 | Cn1nc(-c2cc(Cl)cc(-c3ccc(NC(=O)c4c(F)cccc4F)cc3)n2)oc1=O [Example 24, N-(4-(4-Chloro-6-(4-methyl-5-oxo-4,5-dihydro-1,3,4-oxadiazol-2-yl)pyridin-2-yl)phenyl)-2,6-difluorobenzamide]

SMILES | IC50 [nM]
CCc1ncc(-c2nn(C)c(=O)o2)cc1-c1ccc(NC(=O)c2c(F)cccc2F)cc1 [Example 2, N-(4-(2-ethyl-5-(4-methyl-5-oxo-4,5-dihydro-1,3,4-oxadiazol-2-yl)pyridin-3-yl)phenyl)-2,6-difluorobenzamide] | < 100
COc1ncc(-c2nn(C)c(=O)o2)cc1-c1ccc(NC(=O)c2c(F)cccc2F)cc1 [Example 6, 2,6-Difluoro-N-(4-(2-methoxy-5-(4-methyl-5-oxo-4,5-dihydro-1,3,4-oxadiazol-2-yl)pyridin-3-yl)phenyl)benzamide] | < 100
Cn1nc(-c2cnc(C(F)(F)F)c(-c3ccc(NC(=O)c4c(F)cccc4Cl)cc3)c2)oc1=O [Example 9, 2-Chloro-6-fluoro-N-(4-(5-(4-methyl-5-oxo-4,5-dihydro-1,3,4-oxadiazol-2-yl)-2-(trifluoromethyl)pyridin-n-3-yl)phenyl)benzamide] | 100 to 1000
